# Assay results from PubChem BioAssay AID602459 (Sanford-Burnham Center for Chemical Genomics, 2012).
# Target: Neurotensin receptor type 1 (Homo sapiens) (UniProt P30989)
# Experiment: agonism at neurotensin receptor 1, calcium readout – cell-based, fluorescence, calcium flux, dose response, SAR follow-up (AID 602459)
# Settings: NTR1-expressing cells, agonist mode
# Sequence of Neurotensin receptor type 1 (Homo sapiens) (P30989 whole entry, looked up): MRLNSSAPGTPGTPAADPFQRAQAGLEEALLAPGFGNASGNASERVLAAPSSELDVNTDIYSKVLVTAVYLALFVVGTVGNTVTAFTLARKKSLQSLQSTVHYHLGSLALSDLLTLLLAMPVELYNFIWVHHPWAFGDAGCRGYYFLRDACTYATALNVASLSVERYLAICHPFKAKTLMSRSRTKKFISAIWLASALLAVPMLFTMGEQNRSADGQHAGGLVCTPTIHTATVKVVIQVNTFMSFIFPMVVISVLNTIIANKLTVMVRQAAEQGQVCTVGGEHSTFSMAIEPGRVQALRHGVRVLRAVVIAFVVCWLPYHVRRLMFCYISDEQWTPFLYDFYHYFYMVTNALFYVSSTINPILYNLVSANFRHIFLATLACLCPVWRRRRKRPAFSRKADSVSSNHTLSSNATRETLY
row,EC50,SMILES
1,1500 nM,COc1cc2c3nnc(-c4ccc(F)cc4)c-3cn(Cc3cccc(C)c3)c2cc1OC
2,298 nM,COc1cccc(OC)c1-c1nc(C(=O)N[C@@H](CC(C)C)C(=O)O)cn1-c1ccnc2cc(Cl)ccc12
3,< 156 nM,COc1cccc(OC)c1-c1cc(C(=O)N[C@@H](CC(C)C)C(=O)O)nn1-c1ccnc2cc(Cl)ccc12
